From ChEMBL document CHEMBL2157933, “The synthesis and antituberculosis activity of 5'-nor carbocyclic uracil derivatives” (Bioorg Med Chem, 2012) come the findings set out here.

The structures appear in SMILES notation. Values after ≈ are worked out from the molar mass of the structure shown. Active and inactive are the calls of the source. The rule behind the calls is not given here.

Series [1] can be described thus: (§1) Cytotoxicity against african green monkey Vero cells after 72 hrs by MTT assay. It counts as cell-based. Conditions: chlorocebus sabaeus, Vero cells. A general note: Formazan colour is commonly taken as a measure of viable cells.
The subject of series [2] is Mycobacterium tuberculosis. The series is described as follows: Antibacterial activity against Mycobacterium tuberculosis H37Rv by BACTEC method. It counts as functional.
Series [3] has as its system Mycobacterium tuberculosis. Nature of the series: Antibacterial activity against Mycobacterium tuberculosis H37Rv assessed as growth inhibition at 40 ug/ml by BACTEC method. It counts as functional. The conditions noted are these: read-out: GI.
Series [4] relates to Mycobacterium tuberculosis. The series is described as follows: Antibacterial activity against Mycobacterium tuberculosis H37Rv under anaerobic condition assessed as growth inhibition at 20 ug/ml after 2 to 3 days by BACTEC method. Type of series: functional, organism-based.
In series [5] the test system is Mycobacterium tuberculosis. Nature of the series: Antibacterial activity against Mycobacterium tuberculosis H37Rv assessed as growth inhibition at 20 ug/ml by BACTEC method. Type of series: functional. The conditions noted are these: read-out: GI.
Series [6] has as its system Mycobacterium tuberculosis. Nature of the series: Antibacterial activity against Mycobacterium tuberculosis H37Rv assessed as growth inhibition at 20 to 40 ug/ml by BACTEC method. It counts as functional.
Series [7] concerns Vero. Described as §1. The conditions noted are these: chlorocebus sabaeus, vero, 72 h. Type of series: cell-based.
The test system of series [8] is Mycobacterium tuberculosis. The series is described as follows: Antibacterial activity against Mycobacterium tuberculosis H37Rv under anaerobic condition assessed as growth inhibition at 10 ug/ml by BACTEC method. Type of series: functional. Conditions: read-out: GI.
Series [9] has as its system Mycobacterium tuberculosis. The series is described as follows: Antibacterial activity against Mycobacterium tuberculosis H37Rv assessed as growth inhibition at 10 ug/ml by BACTEC method. It counts as functional. The conditions noted are these: read-out: GI.
Series [10] deals with Mycobacterium tuberculosis. The series is described as follows: Antibacterial activity against Mycobacterium tuberculosis H37Rv under anaerobic condition assessed as growth inhibition at 20 ug/ml by BACTEC method. It counts as functional. The conditions noted are these: read-out: GI.
Series [11] has as its system Mycobacterium tuberculosis. Nature of the series: Antibacterial activity against Mycobacterium tuberculosis H37Rv under anaerobic condition assessed as growth inhibition at 10 to 20 ug/ml by BACTEC method. Type of series: functional.
The test system of series [12] is Mycobacterium tuberculosis. Nature of the series: Antibacterial activity against Mycobacterium tuberculosis H37Rv under anaerobic condition by BACTEC method. It counts as functional.
In series [13] the test system is Mycobacterium tuberculosis. The series is described as follows: Antibacterial activity against Mycobacterium tuberculosis H37Rv under anaerobic condition assessed as growth inhibition at 5 ug/ml by BACTEC method. It counts as functional.
The test system of series [14] is Mycobacterium tuberculosis. Nature of the series: Antibacterial activity against Mycobacterium tuberculosis H37Rv under anaerobic condition assessed as growth inhibition at 0.1 ug/ml by BACTEC method. Type of series: functional. The conditions noted are these: read-out: GI.
In series [15] the test system is Mycobacterium tuberculosis. The series is described as follows: Antibacterial activity against Mycobacterium tuberculosis H37Rv under anaerobic condition assessed as growth inhibition at 2 ug/ml by BACTEC method. It counts as functional. Conditions: read-out: GI.
Series [16] concerns Mycobacterium tuberculosis. The series is described as follows: Antibacterial activity against Mycobacterium tuberculosis H37Rv under anaerobic condition assessed as growth inhibition at 100 ug/ml by BACTEC method. Conditions: read-out: GI. Type of series: functional.
For series [17], the system named is Mycobacterium tuberculosis. Nature of the series: Antibacterial activity against Mycobacterium tuberculosis H37Rv assessed as growth inhibition at 1 ug/ml by BACTEC method. Type of series: functional. The conditions noted are these: read-out: GI.
Series [18] deals with Mycobacterium tuberculosis. The series is described as follows: Antibacterial activity against Mycobacterium tuberculosis H37Rv under anaerobic condition assessed as growth inhibition at 1 ug/ml by BACTEC method. It counts as functional. Conditions: read-out: GI.
Setting [19] is: Mycobacterium tuberculosis, H37Rv, read-out: MIC99.

What is called CC50 is the concentration giving 50% cytotoxicity. In general, MIC99 refers to the lowest concentration that inhibits either 99% of growth or 99% of the strains tested, depending on the study. The compound `O=c1ccn(C2C=CC(O)C2)c(=O)[nH]1` (racemic) registered a CC50 at 72 h in series [1] of more than 200 µg/mL. The MIC99 in [2] is more than 40 µg/mL. Also, in [3], the inhibition of growth at 40 µg/mL is 75%.
As to `Cc1cc(=O)[nH]c(=O)n1C1C=CC(O)C1` (racemic), the “growth inhibition (GI)” value in series [4] was “inactive”. The same compound showed a CC50 at 72 h in [1] of more than 200 µg/mL. The MIC99 in series [2] was found to be 40 µg/mL (≈ 192 µM). The inhibition of growth at 40 µg/mL in [3] turned out to be 100%.
In the case of `O=c1[nH]c(=O)n(C2C=CC(O)C2)cc1I` (racemic), in series [1], the cytotoxic concentration (CC50) at 72 h is more than 200 µg/mL. The inhibition of growth at 20 µg/mL in series [5] is 99%. In addition, the MIC99 in series [2] amounted to 20 µg/mL (≈ 62.5 µM). In series [3], the inhibition of growth at 40 µg/mL was 100%.
For `CCCCCCCCC#Cc1cn(C2C=CC(O)C2)c(=O)[nH]c1=O` (racemic), in series [4], the “growth inhibition (GI)” value was “inactive”. The compound further displayed a cytotoxic concentration (CC50) at 72 h in series [1] of more than 125 µg/mL. The compound further registered an MIC99 in [2] of 40 µg/mL (≈ 121 µM). In [3], the inhibition of growth at 40 µg/mL was found to be 100%.
Take `CCCCCCCCCCC#Cc1cn(C2C=CC(O)C2)c(=O)[nH]c1=O` (racemic): the “growth inhibition (GI)” value in series [6] came to 99%. In addition, the 50% cytotoxic concentration (CC50) at 72 h in [1] is more than 125 µg/mL. In addition, the MIC99 in [2] is 20 µg/mL (≈ 55.8 µM).
With `CCCCCCCCCCCCC#Cc1cn(C2C=CC(O)C2)c(=O)[nH]c1=O` (racemic), in series [6], the “growth inhibition (GI)” value is listed as 100%. In [7], the half-maximal cytotoxic concentration (CC50) was 125 µg/mL (≈ 323 µM). Further, the inhibition of growth at 10 µg/mL in series [8] and in series [9] was 99% in each case. In series [2], this compound had an MIC99 of 10 µg/mL (≈ 25.9 µM). Further, the inhibition of growth at 20 µg/mL in series [10] is 100%.
Compound `CCCCCCCCCCCCC#Cc1cn(C2C=CC(O)C2)c(=O)[nH]c1=O` (single isomer, unassigned; (-)) registered a CC50 at 72 h in [1] of more than 100 µg/mL. Further, the “growth inhibition (GI)” value is on record as 100% in series [11] and 99% in series [13]. Moreover, in series [12] (setting [19]), the MIC99 is 5 µg/mL (≈ 12.9 µM).
`CCCCCCCCCCCCC#Cc1cn(C2C=CC(O)C2)c(=O)[nH]c1=O` (stereo in doubt; (+)6) gave an MIC99 in series [12] of 10 µg/mL (≈ 25.9 µM). Moreover, the “growth inhibition (GI)” value in series [13] is 25%.
As to `CC[C@@H](CO)NCCN[C@@H](CC)CO` [ETHAMBUTOL], in series [12] (setting [19]), the MIC99 was 5 µg/mL (≈ 24.5 µM). In addition, in [13] (Mycobacterium tuberculosis, H37Rv, read-out: GI), the inhibition of growth at 5 µg/mL stood at 100%.
On to `NNC(=O)c1ccncc1` [ISONIAZID], for which the MIC99 in [12] (setting [19]) is 0.1 µg/mL (≈ 0.729 µM). Also, the inhibition of growth at 0.1 µg/mL in [14] was determined as 100%.
With `CC1COc2c(N3CCN(C)CC3)c(F)cc3c(=O)c(C(=O)O)cn1c23` (stereo not given) [OFLOXACIN], the MIC99 in [12] (setting [19]) was 2 µg/mL (≈ 5.53 µM). In addition, the inhibition of growth at 2 µg/mL in [15] stood at 100%.
For `NC(=O)c1cnccn1` [PYRAZINAMIDE], the inhibition of growth at 100 µg/mL in series [16] was 100%. Moreover, the MIC99 in series [12] (setting [19]) is 100 µg/mL (≈ 812 µM).
In series [1], `CO[C@H]1/C=C/O[C@@]2(C)Oc3c(C)c(O)c4c(O)c(c(/C=N/N5CCN(C)CC5)c(O)c4c3C2=O)NC(=O)/C(C)=C\C=C\[C@H](C)[C@H](O)[C@@H](C)[C@@H](O)[C@@H](C)[C@H](OC(C)=O)[C@@H]1C` [RIFAMPIN] gave a CC50 at 72 h of more than 500 µg/mL. Moreover, the inhibition of growth at 1 µg/mL in series [17] and in [18] was 100% throughout. Moreover, the MIC99 in series [12] (setting [19]) and in series [2] was 1 µg/mL (≈ 1.22 µM) throughout.
With `CN[C@@H]1[C@H](O[C@H]2[C@H](O[C@H]3[C@H](O)[C@@H](O)[C@H](N=C(N)N)[C@@H](O)[C@@H]3N=C(N)N)O[C@@H](C)[C@]2(O)C=O)O[C@@H](CO)[C@H](O)[C@H]1O` [STREPTOMYCIN], the MIC99 in series [12] (setting [19]) was 0.1 µg/mL (≈ 0.172 µM). In addition, the inhibition of growth at 0.1 µg/mL in series [14] was 100%.
